Test results as given in ChEMBL document CHEMBL1201861, “Genomics of Drug Sensitity in Cancer screening data, Wellcome Trust Sanger Institute”.

Legend:
Experiment in all cases: cells
C8166 = format: functional, cell-based, Homo sapiens; conditions: Homo sapiens, C8166;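 note: growth inhibition of human C8166 cells measured by a cell viability assay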
Description: SANGER: Inhibition of human C8166 cell growth in a cell viability assay.

HCC2218 = format: functional, cell-based, Homo sapiens; conditions: Homo sapiens, HCC2218;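 note: cell viability assay read-out, with IC50 given as the concentration that inhibits growth of the cell line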
Description: SANGER: Inhibition of human HCC2218 cell growth in a cell viability assay.

COLO-320-HSR = format: functional, cell-based, Homo sapiens; conditions: Homo sapiens, COLO-320-HSR;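 note: growth inhibition of COLO-320-HSR cells, determined with a cell viability assay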
Description: SANGER: Inhibition of human COLO-320-HSR cell growth in a cell viability assay.

SCH = format: functional, cell-based, Homo sapiens; conditions: Homo sapiens, SCH;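 note: growth inhibition of human SCH cells, read out in a cell viability assay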
Description: SANGER: Inhibition of human SCH cell growth in a cell viability assay.

SK-MEL-2 = format: functional, cell-based, Homo sapiens; conditions: Homo sapiens, SK-MEL-2;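 note: growth inhibition of human SK-MEL-2 cells measured with a cell viability assay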
Description: SANGER: Inhibition of human SK-MEL-2 cell growth in a cell viability assay.

TE-6 = format: functional, cell-based, Homo sapiens; conditions: Homo sapiens, TE-6;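 note: growth inhibition of TE-6 cells, read out with a cell viability assay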
Description: SANGER: Inhibition of human TE-6 cell growth in a cell viability assay.

TE-1 = format: functional, cell-based, Homo sapiens; conditions: Homo sapiens, TE-1
Description: SANGER: Inhibition of human TE-1 cell growth in a cell viability assay.

NCI-H1648 = format: functional, cell-based, Homo sapiens; conditions: Homo sapiens, NCI-H1648;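 note: cell viability assay measuring inhibition of NCI-H1648 cell growth, from the Sanger screening data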
Description: SANGER: Inhibition of human NCI-H1648 cell growth in a cell viability assay.

NB69 = format: functional, cell-based, Homo sapiens; conditions: Homo sapiens, NB69;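 note: growth inhibition of NB69 cells, determined by a cell viability assay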
Description: SANGER: Inhibition of human NB69 cell growth in a cell viability assay.

BT-474 = format: functional, cell-based, Homo sapiens; conditions: Homo sapiens, BT-474
Description: SANGER: Inhibition of human BT-474 cell growth in a cell viability assay.

SNU-C2B = format: functional, cell-based; conditions: Homo sapiens;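 note: cell viability readout used to measure compound-driven suppression of SNU-C2B cell proliferation, IC50 marking half-maximal growth inhibition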
Description: SANGER: Inhibition of human SNU-C2B cell growth in a cell viability assay.

MS-1 = format: functional, cell-based, Homo sapiens; conditions: Homo sapiens, MS-1;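 note: growth inhibition of MS-1 cells, read out by cell viability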
Description: SANGER: Inhibition of human MS-1 cell growth in a cell viability assay.

Calu-6 = format: functional, cell-based, Homo sapiens; conditions: Homo sapiens, Calu-6;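 note: growth of human Calu-6 cells, read out by a cell viability assay, IC50 marking inhibition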
Description: SANGER: Inhibition of human Calu-6 cell growth in a cell viability assay.

LB2241-RCC = format: functional, cell-based, Homo sapiens; conditions: Homo sapiens, LB2241-RCC;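 note: cell viability assay measuring how strongly the cultured human renal carcinoma line is prevented from growing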
Description: SANGER: Inhibition of human LB2241-RCC cell growth in a cell viability assay.

NCI-H2126 = format: functional, cell-based, Homo sapiens; conditions: Homo sapiens, NCI-H2126;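 note: growth inhibition of the cancer cell line, determined with a cell viability readout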
Description: SANGER: Inhibition of human NCI-H2126 cell growth in a cell viability assay.

LB771-HNC = format: functional, cell-based; conditions: Homo sapiens;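 note: growth inhibition of LB771-HNC human cells, read out with a cell viability assay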
Description: SANGER: Inhibition of human LB771-HNC cell growth in a cell viability assay.

SNU-5 = format: functional, cell-based, Homo sapiens; conditions: Homo sapiens, SNU-5;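 note: cell viability readout used to measure growth inhibition in human NCI-SNU-5 cells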
Description: SANGER: Inhibition of human NCI-SNU-5 cell growth in a cell viability assay.

MN-60 = format: functional, cell-based, Homo sapiens; conditions: Homo sapiens, MN-60;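 note: growth inhibition of the MN-60 cell line, determined with a cell viability assay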
Description: SANGER: Inhibition of human MN-60 cell growth in a cell viability assay.

SW684 = format: functional, cell-based, Homo sapiens; conditions: Homo sapiens, SW684; read-out: IC50;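 note: growth inhibition of human SW684 cells, measured by a cell viability assay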
Description: SANGER: Inhibition of human SW684 cell growth in a cell viability assay.

NB6 = format: functional, cell-based, Homo sapiens; conditions: Homo sapiens, NB6
Description: SANGER: Inhibition of human NB6 cell growth in a cell viability assay.

KU812 cell line = format: functional, cell-based, Homo sapiens; conditions: Homo sapiens, KU812;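 note: growth inhibition of KU812 cells, read out with a cell viability assay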
Description: SANGER: Inhibition of human KU812 cell growth in a cell viability assay.

MOLT-16 = format: functional, cell-based, Homo sapiens; conditions: Homo sapiens, MOLT-16;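 note: growth inhibition of human MOLT-16 cells, read out with a cell viability assay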
Description: SANGER: Inhibition of human MOLT-16 cell growth in a cell viability assay.

NKM-1 = format: functional, cell-based, Homo sapiens; conditions: Homo sapiens, NKM-1;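 note: growth inhibition of NKM-1 cells, read out with a cell viability assay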
Description: SANGER: Inhibition of human NKM-1 cell growth in a cell viability assay.

K562 = format: functional, cell-based, Homo sapiens; conditions: Homo sapiens, K562
Description: SANGER: Inhibition of human K-562 cell growth in a cell viability assay.

LS-411N = format: functional, cell-based, Homo sapiens; conditions: Homo sapiens, LS-411N
MZ2-MEL = format: functional, cell-based, Homo sapiens; conditions: Homo sapiens, MZ2-MEL;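 note: growth inhibition of MZ2-MEL cells read out with a cell viability assay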
Description: SANGER: Inhibition of human MZ2-MEL cell growth in a cell viability assay.

NCI-H1299 = format: functional, cell-based; conditions: Homo sapiens;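 note: growth inhibition of human NCI-H1299 cells, read out by a cell viability assay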
Description: SANGER: Inhibition of human NCI-H1299 cell growth in a cell viability assay.

COLO-668 = format: functional, cell-based, Homo sapiens; conditions: Homo sapiens, COLO-668
Description: SANGER: Inhibition of human COLO-668 cell growth in a cell viability assay.

ES3 = format: functional, cell-based, Homo sapiens; conditions: Homo sapiens, ES3;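 note: growth inhibition of ES3 cells, read out with a cell viability assay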
Description: SANGER: Inhibition of human ES3 cell growth in a cell viability assay.

ALL-PO = format: functional, cell-based, Homo sapiens; conditions: Homo sapiens, ALL-PO;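 note: growth inhibition of ALL-PO cells, read out by a cell viability assay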
Description: SANGER: Inhibition of human ALL-PO cell growth in a cell viability assay.

L-428 = format: functional, cell-based, Homo sapiens; conditions: Homo sapiens, L-428
Description: SANGER: Inhibition of human L-428 cell growth in a cell viability assay.

OMC-1 = format: functional, cell-based, Homo sapiens; conditions: Homo sapiens, OMC-1;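 note: growth inhibition of the OMC-1 cell line, measured by a cell viability assay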
Description: SANGER: Inhibition of human OMC-1 cell growth in a cell viability assay.

DB = format: functional, cell-based, Homo sapiens; conditions: Homo sapiens, DB
Description: SANGER: Inhibition of human DB cell growth in a cell viability assay.

NCI-H1304 = format: functional, cell-based, Homo sapiens; conditions: Homo sapiens, NCI-H1304;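 note: growth inhibition of the cancer cell line, measured in a cell viability assay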
Description: SANGER: Inhibition of human NCI-H1304 cell growth in a cell viability assay.

NCI-H1155 = format: functional, cell-based, Homo sapiens; conditions: Homo sapiens, NCI-H1155;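 note: cell growth inhibition measured by a viability assay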
Description: SANGER: Inhibition of human NCI-H1155 cell growth in a cell viability assay.

COLO-824 = format: functional, cell-based, Homo sapiens; conditions: Homo sapiens, COLO-824
Description: SANGER: Inhibition of human COLO-824 cell growth in a cell viability assay.

RH-1 = format: functional, cell-based, Homo sapiens; conditions: Homo sapiens, RH-1;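 note: growth inhibition of human RH-1 cells, read out with a cell viability assay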
Description: SANGER: Inhibition of human RH-1 cell growth in a cell viability assay.

JVM-3 = format: functional, cell-based, Homo sapiens; conditions: Homo sapiens, JVM-3;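 note: growth inhibition of human JVM-3 cells, read out with a cell viability assay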
Description: SANGER: Inhibition of human JVM-3 cell growth in a cell viability assay.

CTV-1 = format: functional, cell-based, Homo sapiens; conditions: Homo sapiens, CTV-1;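 note: growth inhibition of the cell line, read out with a cell viability assay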
Description: SANGER: Inhibition of human CTV-1 cell growth in a cell viability assay.

TE-11 = format: functional, cell-based; conditions: Homo sapiens;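 note: growth inhibition of human TE-11 cells, read out by a cell viability assay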
Description: SANGER: Inhibition of human TE-11 cell growth in a cell viability assay.

KM-H2 = format: functional, cell-based, Homo sapiens; conditions: Homo sapiens, KM-H2;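 note: growth inhibition of KM-H2 cells, read out by a cell viability assay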
Description: SANGER: Inhibition of human KM-H2 cell growth in a cell viability assay.

EOL1 = format: functional, cell-based, Homo sapiens; conditions: Homo sapiens, EOL1;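 note: growth inhibition of EoL-1 cells, read out by a cell viability assay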
Description: SANGER: Inhibition of human EoL-1-cell cell growth in a cell viability assay.

ES5 = format: functional, cell-based, Homo sapiens; conditions: Homo sapiens, ES5;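 note: growth inhibition of human ES5 cells, read out by a cell viability assay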
Description: SANGER: Inhibition of human ES5 cell growth in a cell viability assay.

COR-L88 = format: functional, cell-based, Homo sapiens; conditions: Homo sapiens, COR-L88;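 note: growth inhibition of COR-L88 cells, read out with a cell viability assay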
Description: SANGER: Inhibition of human COR-L88 cell growth in a cell viability assay.

NOMO-1 = format: functional, cell-based, Homo sapiens; conditions: Homo sapiens, NOMO-1;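 note: growth inhibition of human NOMO-1 cells measured by a cell viability assay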
Description: SANGER: Inhibition of human NOMO-1 cell growth in a cell viability assay.

SW 954 = format: functional, cell-based, Homo sapiens; conditions: Homo sapiens, SW 954;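 note: growth inhibition of SW954 human cancer cells, read out as cell viability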
Description: SANGER: Inhibition of human SW954 cell growth in a cell viability assay.

NB13 = format: functional, cell-based, Homo sapiens; conditions: Homo sapiens, NB13;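 note: cell viability readout measuring growth inhibition of human NB13 cells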
Description: SANGER: Inhibition of human NB13 cell growth in a cell viability assay.

Becker = format: functional, cell-based, Homo sapiens; conditions: Homo sapiens, Becker;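 note: growth inhibition of Becker cells, read out with a cell viability assay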
Description: SANGER: Inhibition of human Becker cell growth in a cell viability assay.

RS4-11 = format: functional, cell-based, Homo sapiens; conditions: Homo sapiens, RS4-11;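 note: growth inhibition of RS4-11 cells, read out by a cell viability assay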
Description: SANGER: Inhibition of human RS4-11 cell growth in a cell viability assay.

NCI-N87 = format: functional, cell-based; conditions: Homo sapiens;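 note: growth inhibition of human NCI-N87 cells, read out with a cell viability assay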
Description: SANGER: Inhibition of human NCI-N87 cell growth in a cell viability assay.

Measured: IC50

COC(=O)[C@H](CCSC)NC(=O)c1ccc(NC[C@@H](N)CS)cc1-c1ccccc1
> 1020 nM: all assays above

OC[C@H](Cc1ccccc1)Nc1nc(Oc2ccc3c(c2)CCC3)nc2c1ncn2Cc1ccc(-c2ccccc2)cc1
637 nM: KU812 cell line
1880 nM: EOL1
8090 nM: NB13
6650 nM: ES3
8510 nM: LS-411N
6680 nM: DB
4420 nM: MZ2-MEL
8520 nM: SW684
3250 nM: LB771-HNC
5290 nM: RH-1
> 10200 nM: all other assays above

CC1(C)CCC(c2ccc(Cl)cc2)=C(CN2CCN(c3ccc(C(=O)NS(=O)(=O)c4ccc(N[C@H](CCN5CCOCC5)CSc5ccccc5)c(S(=O)(=O)C(F)(F)F)c4)cc3)CC2)C1 [NAVITOCLAX]
365 nM: COR-L88
6.69 nM: EOL1
1710 nM: NCI-H1648
653 nM: MOLT-16
1020 nM: COLO-824
571 nM: DB
82 nM: NB13
1460 nM: NB69
25.9 nM: RS4-11
220 nM: ALL-PO
17 nM: NKM-1
469 nM: MS-1
1860 nM: OMC-1
462 nM: NCI-H1304
1010 nM: L-428
> 2000 nM: all other assays above
